What was measured:
Assay in all cases: relative viability (nuclei count vs DMSO), 5 days (fraction); higher = more cells survive
[1] = compound: CCN(CCO)CCCC(C)Nc1ccnc2cc(Cl)ccc12 [Hydroxychloroquine] + Nc1ncn([C@H]2C[C@H](O)[C@@H](CO)O2)c(=O)n1 [Decitabine] (partner 2 µM)
Summary of the method: (§1)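 Relative viability divides the nuclei count in treated wells by that in vehicle wells. Lung cancer cell lines were seeded in 1536-well plates, dosed by pin tool the next day, and fixed and stained after 5 days in one step with final 0.05% Triton X-100, 1% formaldehyde and 1 ug/ml Hoechst. Dosing was a single drug or a fixed anchor-drug dose plus five library-drug doses (not always all listed) in √10 steps, and values are medians of duplicate plates imaged at 4×.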

[2] = compound: CCN(CCO)CCCC(C)Nc1ccnc2cc(Cl)ccc12 [Hydroxychloroquine] + C[C@@H](Oc1cc(-c2cnn(C3CCNCC3)c2)cnc1N)c1c(Cl)ccc(F)c1Cl [Crizotinib] (partner 1 µM)
Summary of the method: as §1

[3] = compound: CCN(CCO)CCCC(C)Nc1ccnc2cc(Cl)ccc12 [Hydroxychloroquine] + CS(=O)(=O)CCNCc1ccc(-c2ccc3ncnc(Nc4ccc(OCc5cccc(F)c5)c(Cl)c4)c3c2)o1 [Lapatinib] (partner 2 µM)
Summary of the method: as §1

[4] = compound: CCN(CCO)CCCC(C)Nc1ccnc2cc(Cl)ccc12 [Hydroxychloroquine] + Cc1cc(Nc2cc(N3CCN(C)CC3)nc(Sc3ccc(NC(=O)C4CC4)cc3)n2)n[nH]1 [Tozasertib] (partner 0.1 µM)
Summary of the method: as §1

Row | Cell Line | relative viability ([1]; first compound 0.5 µM) | relative viability ([1]; first compound 1.581 µM) | relative viability ([1]; first compound 5 µM) | relative viability ([1]; first compound 15.81 µM) | relative viability ([1]; first compound 50 µM) | relative viability ([2]; first compound 0.5 µM) | relative viability ([2]; first compound 1.581 µM) | relative viability ([2]; first compound 5 µM) | relative viability ([2]; first compound 15.81 µM) | relative viability ([2]; first compound 50 µM) | relative viability ([3]; first compound 0.5 µM) | relative viability ([3]; first compound 1.581 µM) | relative viability ([3]; first compound 5 µM) | relative viability ([3]; first compound 15.81 µM) | relative viability ([3]; first compound 50 µM) | relative viability ([4]; first compound 0.5 µM) | relative viability ([4]; first compound 1.581 µM) | relative viability ([4]; first compound 5 µM) | relative viability ([4]; first compound 15.81 µM) | relative viability ([4]; first compound 50 µM)
1 | HCC-15 | 0.674 | 0.648 | 0.627 | 0.666 | 0.702 | 0.884 | 0.818 | 0.867 | 1.01 | 0.94 | 0.847 | 0.812 | 0.873 | 0.867 | 0.836 | 0.392 | 0.399 | 0.412 | 0.321 | 0.441
2 | HCC-44 | 0.966 | 0.978 | 0.974 | 0.939 | 0.914 | 0.821 | 0.804 | 0.87 | 0.829 | 1.01 | 0.989 | 1.07 | 1.08 | 1.06 | 1.04 | 1.18 | 0.937 | 0.895 | 0.934 | 1.3
3 | HCC-78 | 0.655 | 0.638 | 0.651 | 0.676 | 0.73 | 0.349 | 0.325 | 0.338 | 0.314 | 0.358 | 1.29 | 0.706 | 0.492 | 0.746 | 0.764 | 0.438 | 0.459 | 0.478 | 0.305 | 0.466
4 | HCC-366 | 0.314 | 0.348 | 0.315 | 0.316 | 0.34 | 0.698 | 0.607 | 0.402 | 0.514 | 0.612 | 0.968 | 1.06 | 1.02 | 1.15 | 1.19 | 0.109 | 0.132 | 0.138 | 0.0907 | 0.144
5 | HCC-827 | 0.323 | 0.302 | 0.317 | 0.301 | 0.279 | 0.86 | 0.916 | 1.01 | 0.976 | 0.871 | 0.202 | 0.222 | 0.212 | 0.183 | 0.205 | 0.442 | 0.442 | 0.513 | 0.467 | 0.456
6 | HOP-62 | 0.209 | 0.239 | 0.206 | 0.207 | 0.206 | 0.954 | 0.836 | 0.843 | 1.05 | 0.744 | 1.07 | 0.889 | 1.1 | 0.98 | 1.04 | 0.365 | 0.316 | 0.38 | 0.43 | 0.413
7 | IA-LM |  |  |  |  |  | 0.839 | 0.95 | 0.898 | 0.718 | 0.899 | 0.863 | 1.09 | 0.862 | 0.869 | 0.795 |  |  |  |  | 

Reference: the supplement of paper PMC10307832
